Read-outs that look alike come from different tables or passages of the source.
System: hypoxia-inducible endogenous VEGF expression
Assay: Hypoxia-inducible endogenous VEGF expression ELISA in HeLa cells, dose-response EC50 (Table 3)
Format: cell-based, human
Settings: Homo sapiens
Procedure: The ability of the Compounds to modulate hypoxia-inducible endogenous VEGF expression may be analyzed as follows. VEGF protein levels may be monitored by an ELISA assay (R&D Systems). Briefly, HeLa cells may be cultured for 24-48 hours under hypoxic conditions (1% O2, 5% CO2, balanced with nitrogen) in the presence or absence of a Compound. The conditioned media may then be assayed by ELISA, and the concentration of VEGF calculated from the standard ELISA curve of each assay.
A dose-response analysis may be performed using the ELISA assay and conditions described above. The conditions for the dose-response ELISA are analogous to those described above. A series of, e.g., seven different concentrations may be analyzed. In parallel, a dose-response cytotoxicity assay may be performed using Cell Titer Glo (Promega) under the same conditions as the ELISA to ensure that the inhibition of VEGF expression was not due to the cytotoxicity.

[1] = HeLa cells, hypoxic conditions (1% O2), 24-48 hours, VEGF in conditioned media, read-out: ELISA EC50

Compound	EC50 [1]	EC50 (HeLa, read-out: ELISA EC50 μM)
O=C(Oc1ccc([N+](=O)[O-])cc1)N1CCc2c([nH]c3ccc(Cl)cc23)C1c1ccc(OCC(O)CO)cc1 (stereo not shown) [Compound 632]	0.008 to 0.04 µM	–
COc1ccc(OC(=O)N2CCc3c([nH]c4ccc(Cl)cc34)C2c2ccc(OCC(O)CO)cc2)cc1 (stereo not shown) [Compound 635]	0.008 to 0.04 µM	–
CC(=O)N1CCN(CC(O)COc2ccc(C3c4[nH]c5ccc(Cl)cc5c4CCN3C(=O)Oc3ccc(F)cc3)cc2)CC1 (stereo not shown) [Compound 637]	–	< 0.008 µM
O=C(Oc1ccc(F)cc1)N1CCc2c([nH]c3ccc(Cl)cc23)C1c1ccc(OCC(O)CN2CCOCC2)cc1 (stereo not shown) [Compound 638]	–	< 0.008 µM
O=C(Oc1ccc(Cl)cc1)N1CCc2c([nH]c3ccc(Cl)cc23)C1c1ccc(OCCCCCl)cc1 (stereo not shown) [Compound 660]	< 0.008 µM	–
COCCOCCOc1ccc(C2c3[nH]c4ccc(Cl)cc4c3CCN2C(=O)Oc2ccccc2)cc1 (stereo not shown) [Compound 670]	< 0.008 µM	–
COCCOCCOc1ccc(C2c3[nH]c4ccc(Cl)cc4c3CCN2C(=O)Oc2ccc(F)cc2)cc1 (stereo not shown) [Compound 673]	0.008 to 0.04 µM	–
COCCOCCOc1ccc(C2c3[nH]c4ccc(Cl)cc4c3CCN2C(=O)Oc2ccccc2Cl)cc1 (stereo not shown) [Compound 674]	0.008 to 0.04 µM	–
COCCOCCOc1ccc(C2c3[nH]c4ccc(Cl)cc4c3CCN2C(=O)Oc2ccc(Cl)cc2)cc1 (stereo not shown) [Compound 675]	0.008 to 0.04 µM	–
COCCOCCOc1ccc(C2c3[nH]c4ccc(Cl)cc4c3CCN2C(=O)Oc2ccc(C)cc2)cc1 (stereo not shown) [Compound 677]	0.008 to 0.04 µM	–
COCCOCCOc1ccc(C2c3[nH]c4ccc(Cl)cc4c3CCN2C(=O)Oc2ccc(OC)cc2)cc1 (stereo not shown) [Compound 678]	0.04 to 0.2 µM	–
COCCOCCOc1ccc(C2c3[nH]c4ccc(Cl)cc4c3CCN2C(=O)Oc2ccc(Br)cc2)cc1 (stereo not shown) [Compound 680]	< 0.008 µM	–
COCCOCCOc1ccc(C2c3[nH]c4ccc(Cl)cc4c3CCN2C(=O)Oc2ccc([N+](=O)[O-])cc2)cc1 (stereo not shown) [Compound 681]	0.008 to 0.04 µM	–
O=C(Oc1ccc(Cl)cc1)N1CCc2c([nH]c3ccc(Cl)cc23)C1c1ccc(OCCCCN2CCCC2)cc1 (stereo not shown) [Compound 698]	–	0.008 to 0.04 µM
O=C(Oc1ccc(Cl)cc1)N1CCc2c([nH]c3ccc(Cl)cc23)C1c1ccc(OCCCCNCCO)cc1 (stereo not shown) [Compound 699]	–	0.008 to 0.04 µM
CC(C)NCCCCOc1ccc(C2c3[nH]c4ccc(Cl)cc4c3CCN2C(=O)Oc2ccc(Cl)cc2)cc1 (stereo not shown) [Compound 700]	–	0.008 to 0.04 µM
COCCCNCCCCOc1ccc(C2c3[nH]c4ccc(Cl)cc4c3CCN2C(=O)Oc2ccc(Cl)cc2)cc1 (stereo not shown) [Compound 701]	–	0.008 to 0.04 µM
O=C(Oc1ccc(Cl)cc1)N1CCc2c([nH]c3ccc(Cl)cc23)C1c1ccc(OCCCCN2CCOCC2)cc1 (stereo not shown) [Compound 702]	–	0.008 to 0.04 µM
O=C(Oc1ccc(Cl)cc1)N1CCc2c([nH]c3ccc(Cl)cc23)C1c1ccc(OCCCCN2CCCCC2)cc1 (stereo not shown) [Compound 703]	–	0.008 to 0.04 µM
CN1CCN(CCCCOc2ccc(C3c4[nH]c5ccc(Cl)cc5c4CCN3C(=O)Oc3ccc(Cl)cc3)cc2)CC1 (stereo not shown) [Compound 704]	–	0.04 to 0.2 µM
O=C(Oc1ccc(Cl)cc1)N1CCc2c([nH]c3ccc(Cl)cc23)C1c1ccc(OCCCCn2ccnc2)cc1 (stereo not shown) [Compound 705]	0.008 to 0.04 µM	–
O=C(Oc1ccc(Cl)cc1)N1CCc2c([nH]c3ccc(Cl)cc23)C1c1ccc(OCCCCn2cncn2)cc1 (stereo not shown) [Compound 706]	< 0.008 µM	–
O=C(Oc1ccccc1)N1CCc2c([nH]c3ccc(Cl)cc23)C1c1ccc(OCCCCl)cc1 (stereo not shown) [Compound 710]	< 0.008 µM	–
O=C(Oc1ccc(F)cc1)N1CCc2c([nH]c3ccc(Cl)cc23)C1c1ccc(OCCCCl)cc1 (stereo not shown) [Compound 712]	< 0.008 µM	–
O=C(Oc1ccccc1Cl)N1CCc2c([nH]c3ccc(Cl)cc23)C1c1ccc(OCCCCl)cc1 (stereo not shown) [Compound 713]	0.008 to 0.04 µM	–
O=C(Oc1ccc(F)cc1)N1CCc2c([nH]c3ccc(Cl)cc23)C1c1ccc(OCCCCCl)cc1 (stereo not shown) [Compound 719]	< 0.008 µM	–
O=C(Oc1ccc(F)cc1)N1CCc2c([nH]c3ccc(Cl)cc23)C1c1ccc(OCCCCCCCl)cc1 (stereo not shown) [Compound 723]	< 0.008 µM	–
O=C(Oc1ccc(F)cc1)N1CCc2c([nH]c3ccc(Cl)cc23)C1c1ccc(OCCCCNCCO)cc1 (stereo not shown) [Compound 735]	–	< 0.008 µM

— patent publication US20120157401A1, “METHODS FOR TREATING NEUROFIBROMATOSIS” (PTC Therapeutics, Inc., priority 2009, published 2012)
